Source: article PMC10298626 (International Journal of Molecular Sciences, 2023)

Tested on: iNOS mRNA
Test: iNOS mRNA expression (qRT-PCR) in LPS-stimulated RAW264.7 cells
Type: cell-based, Mouse
Details: 20, 40, and 80 μM; 2 h pretreatment, LPS 500 ng/mL 6 h
Method: RAW264.7 cells were seeded into a 6-well plate (2 × 10^6 cells/well) and cultured for 24 h. The cells were treated with coumarin derivative 2 at 20, 40, and 80 μM and cultured for 2 h and with LPS (500 ng/mL) for 6 h.
The cells were washed with phosphate-buffered saline (PBS) and lysed with the RNeasy Mini kit (Qiagen, Hilden, Germany) for RNA isolation. RNA was converted to cDNA using the AccuPower reverse transcriptase Premix Kit (Bioneer, Daejeon, Republic of Korea). A Power SYBR Green PCR Master Mix (Applied Biosystems, Waltham, MN, USA) was used to perform polymerase chain reaction amplification. Amplification conditions were selected within the Quant 3 PCR system (Applied Biosystems). The data were normalized to the amount of glyceraldehyde 3-phosphate dehydrogenase.
Figure 4 Effect of coumarin derivative 2 on iNOS protein expression in LPS-stimulated RAW264.7 cells. (a) RAW264.7 cells (2.0 × 10^6 cells/6 cm dish) were pretreated with coumarin derivative 2 (20, 40, and 80 μM) for 2 h and incubated with LPS (500 ng/mL) for 20 h. Whole-cell lysates were then immunoblotted with the iNOS specific antibody. […] (c) RAW264.7 cells (2.0 × 10^6 cells/6 cm dish) were pretreated with coumarin derivative 2 (20, 40, and 80 μM) for 2 h and incubated with LPS (500 ng/mL) for 6 h. iNOS mRNA expression levels were measured via a real-time quantitative reverse transcription polymerase chain reaction. […]

N#CC1=C(N)Oc2c(c(=O)oc3ccccc23)C1c1cccc(F)c1 (stereo not shown) [Coumarin derivative 2]
iNOS mRNA expression: significantly suppressed
